Experimental data: patent EP4782434A1, “N-SULFONYL CARBOXAMIDE COMPOUND, AND PREPARATION METHOD THEREFOR AND USE THEREOF” (Nutshell Therapeutics (Shanghai) Co., Ltd., priority 2023, dated 2025)

Assays:
[1] = test system: Theta-mediated end joining (TMEJ) process in HEK293T cells; assay: TMEJ reporter assay (NanoGlo luciferase); format: cell-based; details: Homo sapiens, HEK-293T, HEK293T cells electroporated with TMEJ substrate, 24 hours
Method: The inhibitory effect of the compounds on the Theta-mediated end joining (TMEJ) process was evaluated.
(1) HEK293T cells were cultured in DMEM supplemented with 10% heat-inactivated fetal bovine serum (FBS) and 1% penicillin-streptomycin (PS). (2) Prior to startup, the Neon transfection system was disinfected, and E2 and R buffers were equilibrated to room temperature. (3) Culture medium without antibiotics was pre-warmed. (4) Cells in the flask reaching 80-90% confluency were trypsinized, neutralized with culture medium, centrifuged, and counted. (5) For transfection using a 100 µL electroporation tip, 2 × 10^6 cells were taken, washed once with DPBS (without Mg^2+ and Ca^2+), centrifuged at 1000 rpm for 5 min, and the supernatant was discarded. The number of cells and volume may be increased as required. (6) The Neon system was set up; a Neon tube was inserted into the Neon pipette and E2 buffer was added. (7) 10 µg of TMEJ substrate was added to 100 µL of R solution; the volume may be increased as required. (8) Cells were resuspended in DNA buffer, and electroporation was initiated according to the following parameters:
(9) The cells were loaded into antibiotic-free culture medium and mixed gently. (10) Steps (8)-(9) were repeated as necessary, and cells were seeded into 384-well plates at a density of 40,000 cells/well in 40 µL of culture medium. (11) The plates were incubated in a humidified CO2 incubator at 37°C for 24 hours. (12) NanoGlo reagent was warmed to room temperature, and NanoGlo buffer was mixed with the substrate at a ratio of 50:1. (13) The cell culture plates were equilibrated at room temperature for 10 minutes. (14) 40 µL of NanoGlo substrate buffer was added to each well, followed by shaking at 300 rpm for 3 minutes protected from light. (15) Signals were read via a BMG PHERAstar FSX.

DLD-1 BRCA2-/- cells = assay: DLD-1 BRCA2-/- cell proliferation assay (CellTiter-Glo, 10 days incubation); format: cell-based; details: Homo sapiens, 240 h, DLD-1 BRCA2-/- cell line, total incubation period of 10 days, read-out: DLD1 BRCA2^-/- IC50
From the text: The anti-proliferative effect of the compounds on the human colorectal adenocarcinoma cell line DLD-1 BRCA2^-/- method.
• DLD-1 (purchased from ATCC, Cat. No.: CCL-221, Batch No.: 70033255); • RPMI1640 (purchased from Invitrogen, Cat. No.: 11875-085); • 0.25% Trypsin-EDTA (purchased from Invitrogen, Cat. No.: 25200-072); • Penicillin-Streptomycin solution (purchased from Hyclone, Cat. No.: SV30010); • FBS (purchased from BI, Cat. No.: 04-002-1A); • DMSO (purchased from Sigma, Cat. No.: D4540-1L); • 96-well plate (purchased from Corning, Cat. No.: CLS3903); • CellTiter-Glo reagent (purchased from Promega, Cat. No.: G7558).
The anti-proliferative effect of the compounds on a human colorectal adenocarcinoma cell line was evaluated using an ATP quantification method, wherein the measured activity correlates well with the number of viable cells. The genetically edited cell line DLD-1 BRCA2^-/- was cultured in RPMI 1640 medium (Invitrogen, 11875-085) supplemented with 10% (v/v) fetal bovine serum (BI, 04-002-1A). The cell line was cultured according to the standard instructions of the American Type Culture Collection (ATCC) and identified via short tandem repeat (STR) genotyping.
In the proliferation assay, cells were harvested and resuspended in cell culture medium. Cell density was determined using a cell counter. An appropriate volume of cell suspension was aspirated from the centrifuge tube to prepare a plating working solution (150 cells/100 µL for the DLD-1 BRCA2^-/- cell line). 100 µL of the cell suspension was seeded into each well of a 96-well plate (Corning, 3603) and incubated overnight in an incubator. The diluted test compound solutions were added to the wells. On the fourth and seventh days of compound incubation, the medium was replaced with fresh culture medium, and the compounds were re-administered, for a total incubation period of 10 days. Following incubation, the cell culture plates were removed and equilibrated to room temperature. 100 µL of CellTiter-Glo (Promega, G7558) was added to each well, and the plate was incubated at room temperature for 30 minutes. Data were read using a microplate reader (PerkinElmer, Enspire) in 96-well luminescence mode. Data analysis, curve fitting, and reporting were performed using the dose-response one-site 205 model of IDBS XL fit. Table 2: Proliferation inhibitory activity of compounds against DLD-1 BRCA2-/- cells

Polθ ATPase = target: T1, Polθ ATPase (Homo sapiens, UniProt O75417); assay: Polθ ATPase activity assay (ADP-Glo Kinase Assay kit); format: biochemical; details: truncated POLQ-N protein (aa 1-894) 1 nM, 50 nM ssDNA, 50 µM ATP
T1 construct: purified truncated POLQ-N protein (aa 1-894, N-terminal 6-His tag); 6-His (N)
Method: The inhibitory efficiency of the compounds of formula (I) against Polθ ATPase activity was determined using the ADP-Glo Kinase Assay kit (Promega, V9101). […] The starting (final) concentration was 100 nM, followed by a 3-fold serial dilution for a total of 10 concentration points in duplicate (n=2). 5 μL of purified […], N-terminal 6-His tag) was added to each well. After centrifugation at 1000 rpm for 1 minute, the plate was incubated at 25°C for 10 minutes. 5 μL of substrate reaction solution (containing ATP & ssDNA) was added to each well, and the reaction was carried out at 25°C for 60 minutes. 5 μL of ADP-Glo Reagent was added to each well. After centrifugation at 1000 rpm for 1 minute, the plate was incubated at 25°C for 40 minutes. 10 μL of detection solution was added to each well. After centrifugation at 1000 rpm for 1 minute, the plate was incubated at 25°C for 40 minutes. Luminescence signals were recorded using a microplate reader (BMG, PHERAstar FSX). The final reaction system contained 1 nM of POLQ-N enzyme; 50 nM of ssDNA ([NT]); 50 μM of ATP; and 1% DMSO. The inhibition percentage (%) of the compound at each concentration was calculated using the RFU values normalized against the control wells within each assay plate. Table 1: Inhibitory activity of compounds against Polθ ATPase

T1 sequence (O75417 1-894): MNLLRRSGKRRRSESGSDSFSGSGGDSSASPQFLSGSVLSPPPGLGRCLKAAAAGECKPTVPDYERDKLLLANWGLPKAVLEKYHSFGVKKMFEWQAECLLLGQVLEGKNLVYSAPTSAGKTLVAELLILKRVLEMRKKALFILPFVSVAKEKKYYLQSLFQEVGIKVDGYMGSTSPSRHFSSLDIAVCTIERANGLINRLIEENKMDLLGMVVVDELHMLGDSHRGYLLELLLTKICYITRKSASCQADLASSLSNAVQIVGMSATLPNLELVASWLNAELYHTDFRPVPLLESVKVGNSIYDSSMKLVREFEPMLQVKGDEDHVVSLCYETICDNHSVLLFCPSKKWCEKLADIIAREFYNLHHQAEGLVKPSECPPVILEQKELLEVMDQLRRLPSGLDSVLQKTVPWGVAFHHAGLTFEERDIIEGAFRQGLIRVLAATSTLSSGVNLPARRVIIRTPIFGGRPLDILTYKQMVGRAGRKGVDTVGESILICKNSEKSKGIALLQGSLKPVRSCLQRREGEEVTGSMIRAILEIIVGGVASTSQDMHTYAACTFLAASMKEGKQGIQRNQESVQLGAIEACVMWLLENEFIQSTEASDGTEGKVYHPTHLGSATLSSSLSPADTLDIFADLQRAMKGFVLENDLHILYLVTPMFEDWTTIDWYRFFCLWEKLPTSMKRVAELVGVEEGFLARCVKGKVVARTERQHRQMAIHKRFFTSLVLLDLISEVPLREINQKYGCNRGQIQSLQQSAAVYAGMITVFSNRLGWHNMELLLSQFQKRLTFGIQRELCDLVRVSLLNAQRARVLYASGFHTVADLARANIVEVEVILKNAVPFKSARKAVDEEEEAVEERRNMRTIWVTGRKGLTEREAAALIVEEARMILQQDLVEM

| IC50 (DLD-1 BRCA2-/- cells) | IC50 (Polθ ATPase; class symbols) | IC50 (Polθ ATPase; specific values) | Structure (SMILES) | IC50 [1] |
| --- | --- | --- | --- | --- |
| 17 nM | ≤ 2 nM | 1.4 nM | [2H]C([2H])([2H])Oc1cnc(C(F)F)cc1-c1cc(C([2H])([2H])[2H])ccc1C(=O)NS(=O)(=O)Cc1ccc([C@H](C)OC([2H])([2H])[2H])cc1 [cpd-18, (S)-2-(2-(Difluoromethyl)-5-(methoxy-d3)pyridin-4-yl)-N-((4-(1-(methoxy-d3)ethyl)benzyl)sulfonyl)-4-(methyl-d3)benzamide] | 1.3 nM |
| 21 nM | ≤ 2 nM | 0.45 nM | [2H]C([2H])([2H])O[C@@H](C)c1ccc(CS(=O)(=O)NC(=O)c2ccc(C)cc2-c2cc(C(F)F)ncc2OC)cc1 [cpd-19, (S)-2-(2-(Difluoromethyl)-5-methoxypyridin-4-yl)-N-((4-(1-(methoxy-d3)ethyl)benzyl)sulfonyl)-4-methylbenzamide] | 2 nM |
| 5.2 nM | ≤ 2 nM | 1.5 nM | [2H]C([2H])([2H])O[C@@H](C)c1ccc(CS(=O)(=O)NC(=O)c2ccc(C([2H])([2H])[2H])cc2-c2cc(C(F)F)c(F)cc2OC)cc1 [cpd-21, (S)-5'-(Difluoromethyl)-4'-fluoro-2'-methoxy-N-((4-(1-(methoxy-d3)ethyl)benzyl)sulfonyl)-5-(methyl-d3)-[1,1'-biphenyl]-2-carboxamide] | 2.3 nM |
| 48 nM | ≤ 2 nM | 1.1 nM | [2H]c1c([2H])c([C@H](C)OC([2H])([2H])[2H])c([2H])c([2H])c1CS(=O)(=O)NC(=O)c1ccc(C([2H])([2H])[2H])cc1-c1cc(Cl)ncc1OC [cpd-22, (S)-2-(2-Chloro-5-methoxypyridin-4-yl)-N-(4-(1-(methoxy-d3)ethyl)(phenyl-2,3,5,6-d4)methylsulfonyl)-4-(methyl-d3)benzamide] | 1.3 nM |
